In data set [1] the target is T1, Relaxin receptor 1 (Rattus norvegicus, UniProt Q6R6I6).
T1 sequence (Q6R6I6 whole entry): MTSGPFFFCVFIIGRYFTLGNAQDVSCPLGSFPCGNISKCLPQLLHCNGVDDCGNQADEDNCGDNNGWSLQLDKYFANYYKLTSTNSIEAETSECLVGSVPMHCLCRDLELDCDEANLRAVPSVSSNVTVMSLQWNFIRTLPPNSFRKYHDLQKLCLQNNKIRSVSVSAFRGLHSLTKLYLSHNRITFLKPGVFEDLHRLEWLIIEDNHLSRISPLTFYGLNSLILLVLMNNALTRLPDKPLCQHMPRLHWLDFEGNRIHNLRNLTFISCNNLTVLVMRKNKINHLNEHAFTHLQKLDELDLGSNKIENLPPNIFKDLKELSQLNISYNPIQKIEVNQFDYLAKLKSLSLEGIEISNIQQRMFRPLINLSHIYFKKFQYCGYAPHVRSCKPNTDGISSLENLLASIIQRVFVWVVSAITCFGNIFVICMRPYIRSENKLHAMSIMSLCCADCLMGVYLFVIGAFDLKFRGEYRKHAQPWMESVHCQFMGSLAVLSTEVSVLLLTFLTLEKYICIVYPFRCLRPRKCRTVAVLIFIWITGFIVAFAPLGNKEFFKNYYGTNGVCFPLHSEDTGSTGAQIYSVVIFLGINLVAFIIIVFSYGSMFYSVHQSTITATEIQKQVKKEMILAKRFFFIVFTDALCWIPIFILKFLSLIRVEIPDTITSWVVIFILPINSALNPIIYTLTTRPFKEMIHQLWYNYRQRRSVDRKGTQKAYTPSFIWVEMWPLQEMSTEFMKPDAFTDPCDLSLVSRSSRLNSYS
Briefly: Agonist activity at rat RXFP1 expressed in human […] cells assessed as increase in IBMX-induced cAMP accumulation pretreated with IBMX for 40 mins followed by compound addition and measured after 30 mins by HTRF assay. The class given is cell-based, HEK293.

The nature of data set [2]: Positive chronotropic activity in pithed Sprague-Dawley rat assessed as increase in heart rate at 10 microg/kg, iv administered as bolus dose recorded over 60 mins relative to control. It is filed as ADME, organism-based. The settings on record: in vivo, 0.01 mg/kg, 1 h, dose 10 µg/kg.
Data set [3] addresses T2, Relaxin receptor 1 (Rattus norvegicus) (UniProt Q6R6I6).
T2 sequence (whole entry): T1 sequence (Q6R6I6 whole entry)
Briefly: Agonist activity at rat RXFP1 expressed in human […] cells assessed as increase in IBMX-induced cAMP accumulation pretreated with IBMX for 40 mins followed by compound addition and measured after 30 mins by HTRF assay relative to control. It is filed as cell-based. The conditions noted are these: HEK293, filed as agonist. (Changes in cAMP serve as a functional read-out for many G protein-coupled receptors.)

In data set [4] the target is T3, Relaxin receptor 1 (Homo sapiens, UniProt Q9HBX9).
T3 sequence (Q9HBX9 whole entry): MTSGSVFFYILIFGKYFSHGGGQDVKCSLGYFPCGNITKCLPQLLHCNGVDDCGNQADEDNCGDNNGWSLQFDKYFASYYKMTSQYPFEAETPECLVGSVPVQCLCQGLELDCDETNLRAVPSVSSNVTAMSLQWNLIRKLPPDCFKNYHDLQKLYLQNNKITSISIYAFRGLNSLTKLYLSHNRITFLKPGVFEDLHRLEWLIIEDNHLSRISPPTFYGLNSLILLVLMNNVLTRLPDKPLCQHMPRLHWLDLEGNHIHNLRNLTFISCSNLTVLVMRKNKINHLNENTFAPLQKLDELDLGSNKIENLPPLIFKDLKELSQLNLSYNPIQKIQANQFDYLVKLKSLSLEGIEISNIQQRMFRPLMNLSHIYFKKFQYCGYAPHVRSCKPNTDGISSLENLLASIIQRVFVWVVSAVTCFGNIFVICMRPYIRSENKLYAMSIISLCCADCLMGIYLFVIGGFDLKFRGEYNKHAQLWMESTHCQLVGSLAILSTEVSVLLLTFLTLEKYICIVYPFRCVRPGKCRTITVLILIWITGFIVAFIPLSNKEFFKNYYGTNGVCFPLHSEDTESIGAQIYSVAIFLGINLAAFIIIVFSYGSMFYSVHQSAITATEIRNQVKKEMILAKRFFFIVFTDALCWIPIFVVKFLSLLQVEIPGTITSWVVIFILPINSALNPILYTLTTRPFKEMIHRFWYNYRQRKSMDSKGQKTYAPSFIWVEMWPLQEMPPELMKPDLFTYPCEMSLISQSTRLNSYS
Put plainly: Displacement of Eu3+-labelled H2 relaxin from human RXFP1 expressed in human HEK-293T cells in presence of 10 % FCS by competition binding assay. The class given is cell-based.

For data set [5], the target named is T3, Relaxin receptor 1. Briefly: Agonist activity at RXFP1 endogenously expressed in human OVCAR-5 cells assessed as increase in IBMX-induced cAMP accumulation pretreated with IBMX for 40 mins followed by compound addition and measured after 30 mins by HTRF assay. The class given is functional, cell-based.
The nature of data set [6]: Half life in Sprague-Dawley rat at 1 mg/kg, iv measured upto 72 hrs by LC-HRMS analysis. The class given is ADME, organism-based. The settings on record: in vivo.
Data set [7] deals with T3, Relaxin receptor 1. Briefly: Agonist activity at human RXFP1 expressed in human HEK-293T cells co-transfected with pCRE beta-galactosidase reporter plasmid assessed as […] of IBMX-induced cAMP accumulation incubated for 30 mins by HTRF assay. It is filed as functional, cell-based.
The target of data set [8] is T4, Relaxin receptor 1 (Homo sapiens) (UniProt Q9HBX9).
T4 sequence (whole entry): T3 sequence (Q9HBX9 whole entry)
Briefly: Agonist activity at RXFP1 endogenously expressed in human OVCAR-5 cells assessed as increase in IBMX-induced cAMP accumulation pretreated with IBMX for 40 mins followed by compound addition and measured after 30 mins by HTRF assay relative to relaxin. The class given is functional, cell-based. The settings on record: filed as agonist.

pEC50, pKi: −log10 of the molar value.

Usually pEC50 stands for −log10 of the EC50, conventionally taken in molar units. What is called Emax is the maximal effect, on the per cent scale that the assay sets. For orientation: pKi means the negative decadic logarithm of the Ki, by convention in mol/L. As usually defined, the half-life is how long it takes for the measured level to halve. For the molecule `CC[C@H](C)[C@@H]1NC(=O)[C@H](C)NC(=O)[C@H]([C@@H](C)CC)NC(=O)[C@H](CCC(N)=O)NC(=O)[C@H](C)NC(=O)[C@H](CCCNC(=N)N)NC(=O)[C@H](C(C)C)NC(=O)[C@H](CC(C)C)NC(=O)[C@H](CCC(=O)O)NC(=O)[C@H](CCCNC(=N)N)NC(=O)CNC(=O)[C@@H](NC(=O)[C@H](CC(C)C)NC(=O)[C@H](CCCCN)NC(=O)[C@@H](NC(=O)[C@@H](NC(=O)[C@H](CCC(=O)O)NC(=O)[C@H](CCC(=O)O)NC(=O)[C@H](CCSC)NC(=O)[C@H](Cc2c[nH]c3ccccc23)NC(=O)[C@H](CO)NC(=O)[C@@H](N)CC(=O)O)C(C)C)[C@@H](C)CC)CSSC[C@@H]2NC(=O)[C@@H](NC(=O)[C@H](CCCCN)NC(=O)[C@H](CC(N)=O)NC(=O)[C@H](C)NC(=O)[C@H](CC(C)C)NC(=O)[C@H](C)NC(=O)[C@H](CO)NC(=O)[C@H](Cc3ccc(O)cc3)NC(=O)[C@@H](N)CC(C)C)CSCCSC[C@H](NC(=O)CNC(=O)[C@H](C(C)C)NC(=O)[C@H](Cc3cnc[nH]3)NC2=O)C(=O)N[C@@H]([C@@H](C)O)C(=O)N[C@@H](CCCCN)C(=O)N[C@@H](CCCNC(=N)N)C(=O)N[C@@H](CO)C(=O)N[C@@H](CC(C)C)C(=O)N[C@@H](C)C(=O)N[C@@H](CCCNC(=N)N)C(=O)N[C@@H](Cc2ccccc2)C(=O)NC(C(=O)O)CSSC[C@@H](C(=O)NCC(=O)N[C@@H](CCSC)C(=O)N[C@@H](CO)C(=O)N[C@H](C(=O)N[C@@H](Cc2c[nH]c3ccccc23)C(=O)N[C@@H](CO)C(=O)O)[C@@H](C)O)NC1=O` (stereo partly drawn), the negative-log EC50 (pEC50) at Relaxin receptor 1 [1] was 9.30; at Relaxin receptor 1 [5] it was 9.38; at Relaxin receptor 1 [7], 10.49. In addition, in data set [2], the Activity came to 60%. The Emax in data set [3] and in data set [8] was 100% throughout. Also, the negative-log Ki (pKi) on Relaxin receptor 1 [4] is 8.96. Moreover, in data set [6], the half-life is 27.6 min.

The record behind these values is ChEMBL document CHEMBL4732190, “Identification of Potent and Long-Acting Single-Chain Peptide Mimetics of Human Relaxin-2 for Cardiovascular Diseases” (J Med Chem, 2021).
